Columns and labels:
[1] = target: T1, GABA-A receptor; anion channel (Rattus norvegicus) (UniProt O09028+P15431+P18506+P18508+P19969+P20236+P23574+P23576+P28471+P28473+P30191+P62813+P63079+P63138+Q91ZM7+Q9ES14); conditions: Compound concentration 10.0 uM
[2] = target: D(2) dopamine receptor (Homo sapiens) (UniProt P14416); conditions: Compound concentration 10.0 uM
[3] = target: 5-hydroxytryptamine receptor 7 (Homo sapiens) (UniProt P34969); conditions: Compound concentration 10.0 uM
[4] = target: Sodium-dependent noradrenaline transporter (Homo sapiens) (UniProt P23975); conditions: Compound concentration 10.0 uM
[5] = target: Muscarinic acetylcholine receptor M1 (Homo sapiens) (UniProt P11229); conditions: Compound concentration 10.0 uM
[6] = target: Delta-type opioid receptor (Homo sapiens) (UniProt P41143); conditions: Compound concentration 10.0 uM
[7] = target: T2, 5-hydroxytryptamine receptor 2B (Homo sapiens, UniProt P41595); experiment: GPCRScan assay: inhibition of 5-HT2B; design: radioligand conc. used [nm] 1.0 – 2.0, parental cells stable HEK
[8] = target: 5-hydroxytryptamine receptor 1D (Homo sapiens) (UniProt P28221); conditions: Compound concentration 10.0 uM
[9] = target: Beta-1 adrenergic receptor (Homo sapiens) (UniProt P08588); conditions: Compound concentration 10.0 uM
[10] = target: 5-hydroxytryptamine receptor 1B (Homo sapiens) (UniProt P28222); conditions: Compound concentration 10.0 uM
[11] = target: Sigma non-opioid intracellular receptor 1 (Homo sapiens) (UniProt Q99720); conditions: Compound concentration 10.0 uM
[12] = target: Histamine H3 receptor (Homo sapiens) (UniProt Q9Y5N1); conditions: Compound concentration 10.0 uM
[13] = target: Muscarinic acetylcholine receptor M2 (Homo sapiens) (UniProt P08172); conditions: Compound concentration 10.0 uM
[14] = target: 5-hydroxytryptamine receptor 2A (Homo sapiens) (UniProt P28223); conditions: Compound concentration 10.0 uM
[15] = target: Alpha-1A adrenergic receptor (Homo sapiens) (UniProt P35348); conditions: Compound concentration 10.0 uM
[16] = target: 5-hydroxytryptamine receptor 1A (Homo sapiens) (UniProt P08908); conditions: Compound concentration 10.0 uM
[17] = target: Histamine H1 receptor (Homo sapiens) (UniProt P35367); conditions: Compound concentration 10.0 uM
[18] = target: D(4) dopamine receptor (Homo sapiens) (UniProt P21917); conditions: Compound concentration 10.0 uM
[19] = target: Alpha-1D adrenergic receptor (Homo sapiens) (UniProt P25100); conditions: Compound concentration 10.0 uM
[20] = target: 5-hydroxytryptamine receptor 5A (Homo sapiens) (UniProt P47898); conditions: Compound concentration 10.0 uM
[21] = target: D(1B) dopamine receptor (Homo sapiens) (UniProt P21918); conditions: Compound concentration 10.0 uM
[22] = target: Muscarinic acetylcholine receptor M3 (Homo sapiens) (UniProt P20309); conditions: Compound concentration 10.0 uM
[23] = target: Alpha-2A adrenergic receptor (Homo sapiens) (UniProt P08913); conditions: Compound concentration 10.0 uM
[24] = target: 5-hydroxytryptamine receptor 6 (Homo sapiens) (UniProt P50406); conditions: Compound concentration 10.0 uM
[25] = target: T1, GABA-A receptor; anion channel (Rattus norvegicus); conditions: Compound concentration 10.0 uM; remark: listed apart in the source
[26] = target: Beta-3 adrenergic receptor (Homo sapiens) (UniProt P13945); conditions: Compound concentration 10.0 uM
[27] = target: Alpha-2B adrenergic receptor (Homo sapiens) (UniProt P18089); conditions: Compound concentration 10.0 uM
[28] = target: Muscarinic acetylcholine receptor M4 (Homo sapiens) (UniProt P08173); conditions: Compound concentration 10.0 uM
[29] = FLIPR-TETRA assay
[30] = target: Sodium-dependent serotonin transporter (Homo sapiens) (UniProt P31645); conditions: Compound concentration 10.0 uM
[31] = target: Mu-type opioid receptor (Homo sapiens) (UniProt P35372); conditions: Compound concentration 10.0 uM
[32] = target: Histamine H4 receptor (Homo sapiens) (UniProt Q9H3N8); conditions: Compound concentration 10.0 uM
[33] = target: 5-hydroxytryptamine receptor 2C (Homo sapiens) (UniProt P28335); conditions: Compound concentration 10.0 uM
[34] = target: T2, 5-hydroxytryptamine receptor 2B; conditions: Compound concentration 10.0 uM
[35] = target: Sodium-dependent dopamine transporter (Homo sapiens) (UniProt Q01959); conditions: Compound concentration 10.0 uM
[36] = target: D(3) dopamine receptor (Homo sapiens) (UniProt P35462); conditions: Compound concentration 10.0 uM
[37] = target: Alpha-2C adrenergic receptor (Homo sapiens) (UniProt P18825); conditions: Compound concentration 10.0 uM
[38] = species: Rattus norvegicus; conditions: Compound concentration 10.0 uM
[39] = target: D(1A) dopamine receptor (Homo sapiens) (UniProt P21728); conditions: Compound concentration 10.0 uM
[40] = target: Kappa-type opioid receptor (Homo sapiens) (UniProt P41145); conditions: Compound concentration 10.0 uM
[41] = target: 5-hydroxytryptamine receptor 3A (Homo sapiens) (UniProt P46098); conditions: Compound concentration 10.0 uM
[42] = target: Beta-2 adrenergic receptor (Homo sapiens) (UniProt P07550); conditions: Compound concentration 10.0 uM
[43] = target: Sigma intracellular receptor 2 (Homo sapiens) (UniProt Q5BJF2); conditions: Compound concentration 10.0 uM
[44] = target: 5-hydroxytryptamine receptor 1A (Homo sapiens, UniProt P08908); experiment: GPCRScan assay: inhibition of 5-HT1A; design: radioligand conc. used [nm] 0.5 – 1.0, parental cells stable CHO
[45] = target: Muscarinic acetylcholine receptor M5 (Homo sapiens) (UniProt P08912); conditions: Compound concentration 10.0 uM
[46] = target: Histamine H2 receptor (Homo sapiens) (UniProt P25021); conditions: Compound concentration 10.0 uM
[47] = target: Alpha-1B adrenergic receptor (Homo sapiens) (UniProt P35368); conditions: Compound concentration 10.0 uM

T2 sequence (P41595 whole entry): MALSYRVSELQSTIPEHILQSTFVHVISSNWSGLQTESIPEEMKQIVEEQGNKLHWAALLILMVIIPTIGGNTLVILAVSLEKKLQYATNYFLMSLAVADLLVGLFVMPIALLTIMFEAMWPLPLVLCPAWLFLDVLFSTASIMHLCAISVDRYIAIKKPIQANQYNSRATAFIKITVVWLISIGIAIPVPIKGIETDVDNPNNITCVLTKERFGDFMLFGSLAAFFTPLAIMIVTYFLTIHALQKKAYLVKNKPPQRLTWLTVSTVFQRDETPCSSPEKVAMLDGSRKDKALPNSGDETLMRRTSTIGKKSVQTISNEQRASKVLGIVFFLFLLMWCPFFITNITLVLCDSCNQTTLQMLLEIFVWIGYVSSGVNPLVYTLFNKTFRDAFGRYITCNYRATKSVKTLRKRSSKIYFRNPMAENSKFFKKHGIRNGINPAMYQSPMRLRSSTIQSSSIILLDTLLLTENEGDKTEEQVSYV
Kappa-type opioid receptor (Homo sapiens), sequence (P41145 whole entry): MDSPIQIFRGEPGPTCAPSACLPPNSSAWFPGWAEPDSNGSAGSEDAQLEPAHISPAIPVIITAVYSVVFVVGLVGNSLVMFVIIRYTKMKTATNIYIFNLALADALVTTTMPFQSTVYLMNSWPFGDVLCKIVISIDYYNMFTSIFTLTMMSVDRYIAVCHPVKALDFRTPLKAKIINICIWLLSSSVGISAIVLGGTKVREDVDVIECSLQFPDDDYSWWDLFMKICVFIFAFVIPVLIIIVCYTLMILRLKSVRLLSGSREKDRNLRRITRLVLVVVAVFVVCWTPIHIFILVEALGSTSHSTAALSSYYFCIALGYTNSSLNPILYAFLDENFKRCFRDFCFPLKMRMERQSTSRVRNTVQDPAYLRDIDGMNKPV
Muscarinic acetylcholine receptor M1 (Homo sapiens), sequence (P11229 whole entry): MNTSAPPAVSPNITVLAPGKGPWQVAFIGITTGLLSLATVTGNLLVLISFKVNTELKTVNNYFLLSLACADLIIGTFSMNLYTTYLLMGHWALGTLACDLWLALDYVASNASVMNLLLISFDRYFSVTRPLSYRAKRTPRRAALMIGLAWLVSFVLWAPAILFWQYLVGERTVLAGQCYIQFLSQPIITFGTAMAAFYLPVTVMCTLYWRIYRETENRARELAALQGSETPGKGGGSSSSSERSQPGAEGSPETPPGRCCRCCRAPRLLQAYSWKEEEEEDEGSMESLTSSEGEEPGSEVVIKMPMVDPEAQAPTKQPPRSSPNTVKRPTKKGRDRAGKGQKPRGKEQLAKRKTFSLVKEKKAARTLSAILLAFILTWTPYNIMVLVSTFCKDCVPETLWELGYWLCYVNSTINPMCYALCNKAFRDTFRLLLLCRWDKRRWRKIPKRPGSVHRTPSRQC
Histamine H4 receptor (Homo sapiens), sequence (Q9H3N8 whole entry): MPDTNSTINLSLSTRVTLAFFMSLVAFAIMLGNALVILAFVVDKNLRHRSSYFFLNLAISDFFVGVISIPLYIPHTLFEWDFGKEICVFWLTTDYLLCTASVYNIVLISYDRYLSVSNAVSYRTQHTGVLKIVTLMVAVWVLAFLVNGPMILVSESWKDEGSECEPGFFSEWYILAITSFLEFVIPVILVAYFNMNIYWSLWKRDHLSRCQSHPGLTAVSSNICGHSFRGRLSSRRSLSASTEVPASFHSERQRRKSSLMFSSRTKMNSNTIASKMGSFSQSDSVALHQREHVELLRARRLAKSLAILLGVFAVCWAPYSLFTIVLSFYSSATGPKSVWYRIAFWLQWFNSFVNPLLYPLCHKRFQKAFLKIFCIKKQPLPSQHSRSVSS
D(1A) dopamine receptor (Homo sapiens), sequence (P21728 whole entry): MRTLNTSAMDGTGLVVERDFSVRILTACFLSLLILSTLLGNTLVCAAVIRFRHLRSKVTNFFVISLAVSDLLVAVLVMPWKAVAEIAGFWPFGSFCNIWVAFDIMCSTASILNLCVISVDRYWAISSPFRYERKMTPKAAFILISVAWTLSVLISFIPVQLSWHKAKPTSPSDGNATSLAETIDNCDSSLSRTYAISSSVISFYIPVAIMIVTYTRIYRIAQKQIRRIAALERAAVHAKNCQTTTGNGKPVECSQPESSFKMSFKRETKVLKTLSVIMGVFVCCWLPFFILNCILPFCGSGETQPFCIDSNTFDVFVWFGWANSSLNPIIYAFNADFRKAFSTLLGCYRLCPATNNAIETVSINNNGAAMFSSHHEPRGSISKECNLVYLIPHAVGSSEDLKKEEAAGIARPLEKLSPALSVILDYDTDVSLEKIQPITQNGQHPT
Alpha-1A adrenergic receptor (Homo sapiens), sequence (P35348 whole entry): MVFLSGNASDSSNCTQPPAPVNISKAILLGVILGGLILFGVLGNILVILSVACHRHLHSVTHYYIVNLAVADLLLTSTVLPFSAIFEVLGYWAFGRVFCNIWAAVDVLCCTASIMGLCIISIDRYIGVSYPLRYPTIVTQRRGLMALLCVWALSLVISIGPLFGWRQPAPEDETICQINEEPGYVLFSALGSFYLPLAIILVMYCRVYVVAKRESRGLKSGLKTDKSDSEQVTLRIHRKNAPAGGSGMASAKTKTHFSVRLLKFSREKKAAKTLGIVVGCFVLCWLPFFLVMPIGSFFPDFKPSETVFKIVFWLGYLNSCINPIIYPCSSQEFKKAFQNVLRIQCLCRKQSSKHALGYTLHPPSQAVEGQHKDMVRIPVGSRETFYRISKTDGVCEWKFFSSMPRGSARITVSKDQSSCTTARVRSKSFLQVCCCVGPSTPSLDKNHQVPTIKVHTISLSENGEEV
5-hydroxytryptamine receptor 5A (Homo sapiens), sequence (P47898 whole entry): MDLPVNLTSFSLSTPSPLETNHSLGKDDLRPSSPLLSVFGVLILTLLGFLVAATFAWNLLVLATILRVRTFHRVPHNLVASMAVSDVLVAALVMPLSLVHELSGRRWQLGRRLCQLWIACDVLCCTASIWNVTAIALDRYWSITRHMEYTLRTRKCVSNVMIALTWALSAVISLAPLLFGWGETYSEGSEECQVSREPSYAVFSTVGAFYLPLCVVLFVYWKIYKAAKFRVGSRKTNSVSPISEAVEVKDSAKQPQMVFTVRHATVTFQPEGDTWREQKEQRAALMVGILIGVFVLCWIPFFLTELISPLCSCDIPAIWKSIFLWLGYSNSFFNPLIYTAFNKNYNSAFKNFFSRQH
5-hydroxytryptamine receptor 1B (Homo sapiens), sequence (P28222 whole entry): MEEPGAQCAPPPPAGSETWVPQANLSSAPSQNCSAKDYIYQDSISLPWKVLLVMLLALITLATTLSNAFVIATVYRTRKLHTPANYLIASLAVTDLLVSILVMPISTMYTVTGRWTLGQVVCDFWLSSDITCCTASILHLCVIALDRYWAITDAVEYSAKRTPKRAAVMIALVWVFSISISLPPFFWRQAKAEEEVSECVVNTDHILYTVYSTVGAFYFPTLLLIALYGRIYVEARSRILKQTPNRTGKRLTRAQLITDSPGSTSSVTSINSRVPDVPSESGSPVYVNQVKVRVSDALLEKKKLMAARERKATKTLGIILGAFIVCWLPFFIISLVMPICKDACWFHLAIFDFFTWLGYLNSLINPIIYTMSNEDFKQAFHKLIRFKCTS
5-hydroxytryptamine receptor 2A (Homo sapiens), sequence (P28223 whole entry): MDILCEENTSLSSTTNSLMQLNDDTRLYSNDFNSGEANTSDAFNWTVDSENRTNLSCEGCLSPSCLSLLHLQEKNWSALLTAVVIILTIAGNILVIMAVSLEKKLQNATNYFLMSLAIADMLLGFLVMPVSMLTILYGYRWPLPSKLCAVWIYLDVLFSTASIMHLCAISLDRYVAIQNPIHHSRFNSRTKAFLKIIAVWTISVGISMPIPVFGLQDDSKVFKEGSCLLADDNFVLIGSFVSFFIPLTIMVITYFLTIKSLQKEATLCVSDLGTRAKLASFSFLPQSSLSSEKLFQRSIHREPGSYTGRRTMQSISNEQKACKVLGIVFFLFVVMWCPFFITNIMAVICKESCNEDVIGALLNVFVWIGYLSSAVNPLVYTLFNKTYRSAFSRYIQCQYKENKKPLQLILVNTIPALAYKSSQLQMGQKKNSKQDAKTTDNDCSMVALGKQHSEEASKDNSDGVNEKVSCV
D(4) dopamine receptor (Homo sapiens), sequence (P21917 whole entry): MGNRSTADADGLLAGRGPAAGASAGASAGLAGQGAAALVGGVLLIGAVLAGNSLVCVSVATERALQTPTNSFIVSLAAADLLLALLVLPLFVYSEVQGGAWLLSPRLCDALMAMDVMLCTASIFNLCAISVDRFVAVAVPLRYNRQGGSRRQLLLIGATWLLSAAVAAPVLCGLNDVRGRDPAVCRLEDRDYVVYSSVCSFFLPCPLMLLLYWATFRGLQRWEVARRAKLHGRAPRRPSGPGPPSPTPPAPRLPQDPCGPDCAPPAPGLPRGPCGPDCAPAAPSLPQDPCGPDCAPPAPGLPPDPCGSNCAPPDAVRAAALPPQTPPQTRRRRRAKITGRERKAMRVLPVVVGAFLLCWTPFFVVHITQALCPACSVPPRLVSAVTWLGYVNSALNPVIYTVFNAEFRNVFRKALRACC
Alpha-2C adrenergic receptor (Homo sapiens), sequence (P18825 whole entry): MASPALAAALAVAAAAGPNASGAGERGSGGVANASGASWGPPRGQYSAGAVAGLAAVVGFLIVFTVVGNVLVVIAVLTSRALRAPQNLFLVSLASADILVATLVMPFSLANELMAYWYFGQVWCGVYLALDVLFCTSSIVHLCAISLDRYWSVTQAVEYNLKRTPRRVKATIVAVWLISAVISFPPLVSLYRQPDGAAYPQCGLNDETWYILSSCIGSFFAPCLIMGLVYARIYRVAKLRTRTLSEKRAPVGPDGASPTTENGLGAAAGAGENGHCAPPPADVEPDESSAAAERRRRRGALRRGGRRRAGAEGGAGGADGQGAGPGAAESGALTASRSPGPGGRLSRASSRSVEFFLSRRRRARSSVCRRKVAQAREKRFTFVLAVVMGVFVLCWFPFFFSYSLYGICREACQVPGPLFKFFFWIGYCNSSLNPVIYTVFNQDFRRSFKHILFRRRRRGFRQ
Sigma non-opioid intracellular receptor 1 (Homo sapiens), sequence (Q99720 whole entry): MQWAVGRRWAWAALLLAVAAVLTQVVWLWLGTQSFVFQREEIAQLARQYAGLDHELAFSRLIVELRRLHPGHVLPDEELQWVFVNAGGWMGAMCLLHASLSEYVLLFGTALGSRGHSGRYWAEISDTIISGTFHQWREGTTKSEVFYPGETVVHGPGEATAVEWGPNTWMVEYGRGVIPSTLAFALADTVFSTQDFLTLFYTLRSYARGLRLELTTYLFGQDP

Compound `Nc1nc(NCc2ccccc2)nc(-c2ccccc2CO)n1` [Ogerin] has an inhibition [1] of 32.9%, an inhibition [2] of 10% and an inhibition [3] of 43.9%. The inhibition [4] was 32.1%, the inhibition [5] was 23.6% and the inhibition [6] was 12.5%. The Ki ([7]; read-out: Ki) was 496 nM, the Ki ([7]; read-out: pKi (converted)) was 490 nM and the inhibition [8] was 11.2%. The inhibition [9] was 25.5%, the inhibition [10] was 7.41% and the inhibition [11] was -0.41%. The inhibition [12] was -1.93%, the inhibition [13] was 23.2% and the inhibition [14] was 2.78%. It also gave an inhibition [15] of 25.5%, an inhibition [16] of 9.7% and an inhibition [17] of -4.07%. For the same compound, the inhibition [18] was 4.35%, the inhibition [19] was 4.63% and the inhibition [20] was 10.6%. The inhibition [21] was 43.9%, the inhibition [22] was 36% and the inhibition [23] was 24.4%. For the same compound, the inhibition [24] was 19.4%, the inhibition [25] was 19.7% and the inhibition [26] was 14.8%. It also gave an inhibition [27] of 43.9%, an inhibition [28] of -9.42% and a pEC50 [29] of 6.83. It also gave an inhibition [30] of 4.96%, an inhibition [31] of 11.9% and an inhibition [32] of 8.3%. It also gave an inhibition [33] of 9.32%, an inhibition [34] of 81% and an inhibition [35] of 18.1%. For the same compound, the inhibition [36] was 18.9%, the inhibition [37] was 0.87% and the inhibition [38] was 12.9%. For the same compound, the inhibition [39] was 33.7%, the inhibition [40] was 30.2% and the inhibition [41] was 2.24%. The inhibition [42] was 20.7%.
`Nc1nc(NCc2ccccc2)nc(-c2cccc(CO)c2)n1` [ZINC32547799] gave an inhibition [1] of 18.3%, an inhibition [2] of -7.4% and an inhibition [3] of 15.9%. It also gave an inhibition [4] of 43.6%, an inhibition [5] of 35.2% and an inhibition [6] of 9.2%. For the same compound, the inhibition [43] was 12.3%, the inhibition [8] was 13.7% and the inhibition [9] was -3.07%. The inhibition [10] was -2.86%, the inhibition [11] was 0.95% and the inhibition [12] was 6.14%. It also gave an inhibition [13] of 10.8%, an inhibition [14] of 1.28% and an inhibition [15] of 5.91%. The inhibition [16] was 65.5%, the inhibition [17] was -5.64% and the inhibition [18] was 24.4%. The inhibition [19] was -8.75%, the inhibition [20] was 0.66% and the Ki ([44]; read-out: Ki) was 850 nM. The Ki ([44]; read-out: pKi (converted)) was 832 nM, the inhibition [22] was 18.3% and the inhibition [23] was 7.24%. The inhibition [24] was 26.7%, the inhibition [26] was 17.8% and the inhibition [27] was 21.8%. The inhibition [28] was 21.6%, the inhibition [30] was 9.44% and the inhibition [31] was 8.68%. The inhibition [32] was -9.05%, the inhibition [33] was 3.72% and the inhibition [45] was 12.8%. It also gave an inhibition [34] of 41.8%, an inhibition [46] of 4.01% and an inhibition [47] of 5.01%. The inhibition [35] was -9.76%, the inhibition [36] was 8.38% and the inhibition [37] was 1.4%. The inhibition [38] was 8.6%, the inhibition [39] was 3.99% and the inhibition [40] was 10.8%. It also gave an inhibition [41] of 37.2% and an inhibition [42] of 18%.

Reference: ChEMBL document CHEMBL4507323, “Data for DCP probe Ogerin” (2021)
